Assay results from the supplement of paper PMC11451515.

Assays:
Conditions in all cases: 48 h
SEM cells [1] = test: AUC of viability dose-response curve (% viability x log10 dose units); higher = less sensitive
Outline: (§1)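 Leukemia cells adapted to each medium (500 or 1000 cells/well, 1536-well plates) were exposed to library compounds in DMSO for 48 h at 37°C at 11 threefold doses, 47 μM to 0.79 nM. Luminescence by CellTiter-Glo One was normalised per plate to DMSO and cell-free wells, then fitted with a four-parameter log-logistic curve on log10 dose. Curves above full viability were scaled and quality-control failures removed before area under the curve was integrated by trapezoidal rule.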

NOMO1 [2] = test: as above
Outline: as §1

P12-Ichikawa [3] = test: as above
Outline: as §1

SEM cells [4] = test: cell viability relative to DMSO control; higher = less cytotoxic
Outline: (§2)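 Before seeding, each leukemia line was adapted for at least four passages in each medium. NOMO1 or SEM cells (500 cells/well) and P12-Ichikawa cells (1000 cells/well) went into 1536-well plates at 5 μl, then received library compounds in DMSO by pin dosing across 11 threefold concentrations, 47 μM to 0.79 nM. Readout was CellTiter-Glo One luminescence after 48 h at 37°C, and viability is given as a per-plate percentage of DMSO wells, with cell-free wells as background.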

NOMO1 [5] = test: as above
Outline: as §2

P12-Ichikawa [6] = test: as above
Outline: as §2

CCOC(=O)c1ccc(OC(=O)CCCCCNC(=N)N)cc1
AUC of viability dose-response curve
Conditions | NOMO1 [2] | P12-Ichikawa [3] | SEM cells [1]
HPLM + 10% dialyzed FBS | 410 | 354 | 436
RPMI 5 mM glucose + 10% FBS | 444 | 413 | 385
RPMI 5 mM glucose + 10% dialyzed FBS | 437 | 407 | 418

cell viability [%]
Conditions | NOMO1 [5] | P12-Ichikawa [6] | SEM cells [4]
HPLM + 10% dialyzed FBS, 0.000781 µM | 126 | 117 | 111
HPLM + 10% dialyzed FBS, 0.00234 µM | 115 | 121 | 91.3
HPLM + 10% dialyzed FBS, 0.00702 µM | 122 | 123 | 117
HPLM + 10% dialyzed FBS, 0.0211 µM | 116 | 122 | 120
HPLM + 10% dialyzed FBS, 0.0632 µM | 137 | 125 | 123
HPLM + 10% dialyzed FBS, 0.19 µM | 128 | 126 | 131
HPLM + 10% dialyzed FBS, 0.569 µM | 127 | 124 | 132
HPLM + 10% dialyzed FBS, 1.71 µM | 84.6 | 76 | 127
HPLM + 10% dialyzed FBS, 5.12 µM | 91.8 | 10.7 | 120
HPLM + 10% dialyzed FBS, 15.4 µM | 62.4 | 16.3 | 57.9
HPLM + 10% dialyzed FBS, 46.1 µM | 55 | 17.4 | 39.8
RPMI 5 mM glucose + 10% FBS, 0.000781 µM | 117 | – | 116
RPMI 5 mM glucose + 10% FBS, 0.00234 µM | 119 | – | 108
RPMI 5 mM glucose + 10% FBS, 0.00702 µM | 124 | – | 134
RPMI 5 mM glucose + 10% FBS, 0.0211 µM | 114 | – | 109
RPMI 5 mM glucose + 10% FBS, 0.0632 µM | 131 | – | 130
RPMI 5 mM glucose + 10% FBS, 0.19 µM | 128 | – | 140
RPMI 5 mM glucose + 10% FBS, 0.569 µM | 114 | – | 141
RPMI 5 mM glucose + 10% FBS, 1.71 µM | 132 | – | 105
RPMI 5 mM glucose + 10% FBS, 5.12 µM | 77.3 | – | 45.9
RPMI 5 mM glucose + 10% FBS, 15.4 µM | 83 | – | 31.8
RPMI 5 mM glucose + 10% FBS, 46.1 µM | 104 | – | 27.2
RPMI 5 mM glucose + 10% dialyzed FBS, 0.000781 µM | 116 | – | 99.1
RPMI 5 mM glucose + 10% dialyzed FBS, 0.00234 µM | 110 | – | 86.9
RPMI 5 mM glucose + 10% dialyzed FBS, 0.00702 µM | 135 | – | 142
RPMI 5 mM glucose + 10% dialyzed FBS, 0.0211 µM | 134 | – | 132
RPMI 5 mM glucose + 10% dialyzed FBS, 0.0632 µM | 114 | – | 109
RPMI 5 mM glucose + 10% dialyzed FBS, 0.19 µM | 142 | – | 117
RPMI 5 mM glucose + 10% dialyzed FBS, 0.569 µM | 137 | – | 123
RPMI 5 mM glucose + 10% dialyzed FBS, 1.71 µM | 154 | – | 125
RPMI 5 mM glucose + 10% dialyzed FBS, 5.12 µM | 85.7 | – | 95.7
RPMI 5 mM glucose + 10% dialyzed FBS, 15.4 µM | 81.8 | – | 37.8
RPMI 5 mM glucose + 10% dialyzed FBS, 46.1 µM | 91.2 | – | 26.4

C[N]1C=C(C=N1)C2=C3\C=N/NC(=O)C4=C3C(=CC(=C4)NC(=O)[C@H](N)C5CCCCC5)[NH]2
AUC of viability dose-response curve
Conditions | NOMO1 [2] | P12-Ichikawa [3] | SEM cells [1]
HPLM + 10% dialyzed FBS | 403 | 395 | 309
RPMI 5 mM glucose + 10% FBS | 390 | 387 | 334
RPMI 5 mM glucose + 10% dialyzed FBS | 384 | 371 | 283

cell viability [%]
Conditions | NOMO1 [5] | P12-Ichikawa [6] | SEM cells [4]
HPLM + 10% dialyzed FBS, 0.000781 µM | 99.8 | 103 | 87.7
HPLM + 10% dialyzed FBS, 0.00234 µM | 111 | 103 | 56.3
HPLM + 10% dialyzed FBS, 0.00702 µM | 97.7 | 99.7 | 85.5
HPLM + 10% dialyzed FBS, 0.0211 µM | 91.1 | 100 | 101
HPLM + 10% dialyzed FBS, 0.0632 µM | 104 | 99.7 | 79
HPLM + 10% dialyzed FBS, 0.19 µM | 101 | 103 | 90.8
HPLM + 10% dialyzed FBS, 0.569 µM | 91.6 | 94.5 | 68
HPLM + 10% dialyzed FBS, 1.71 µM | 78.3 | 81.1 | 58.3
HPLM + 10% dialyzed FBS, 5.12 µM | 72.6 | 65.5 | 36.5
HPLM + 10% dialyzed FBS, 15.4 µM | 35.7 | 45.1 | 20.7
HPLM + 10% dialyzed FBS, 46.1 µM | 36.6 | 12.3 | 11.6
RPMI 5 mM glucose + 10% FBS, 0.000781 µM | 95.1 | 98.4 | 101
RPMI 5 mM glucose + 10% FBS, 0.00234 µM | 97.2 | 101 | 67.1
RPMI 5 mM glucose + 10% FBS, 0.00702 µM | 93.5 | 99.1 | 94.4
RPMI 5 mM glucose + 10% FBS, 0.0211 µM | 87 | 99.9 | 99.2
RPMI 5 mM glucose + 10% FBS, 0.0632 µM | 100 | 97.3 | 92.9
RPMI 5 mM glucose + 10% FBS, 0.19 µM | 97.9 | 98.5 | 103
RPMI 5 mM glucose + 10% FBS, 0.569 µM | 84.3 | 92.7 | 81.3
RPMI 5 mM glucose + 10% FBS, 1.71 µM | 86.4 | 85.3 | 50.8
RPMI 5 mM glucose + 10% FBS, 5.12 µM | 80.2 | 61.7 | 34.5
RPMI 5 mM glucose + 10% FBS, 15.4 µM | 26 | 21.8 | 22
RPMI 5 mM glucose + 10% FBS, 46.1 µM | 29.1 | 7.78 | 8.73
RPMI 5 mM glucose + 10% dialyzed FBS, 0.000781 µM | 101 | 96.2 | 79.8
RPMI 5 mM glucose + 10% dialyzed FBS, 0.00234 µM | 90.4 | 98 | 50.8
RPMI 5 mM glucose + 10% dialyzed FBS, 0.00702 µM | 105 | 95.2 | 95.1
RPMI 5 mM glucose + 10% dialyzed FBS, 0.0211 µM | 89.7 | 90.5 | 86.2
RPMI 5 mM glucose + 10% dialyzed FBS, 0.0632 µM | 90.7 | 94.7 | 89.5
RPMI 5 mM glucose + 10% dialyzed FBS, 0.19 µM | 87 | 102 | 90
RPMI 5 mM glucose + 10% dialyzed FBS, 0.569 µM | 95.4 | 85.4 | 59.3
RPMI 5 mM glucose + 10% dialyzed FBS, 1.71 µM | 94.1 | 79.6 | 42.2
RPMI 5 mM glucose + 10% dialyzed FBS, 5.12 µM | 60.3 | 58.8 | 25
RPMI 5 mM glucose + 10% dialyzed FBS, 15.4 µM | 20.5 | 18.4 | 15.4
RPMI 5 mM glucose + 10% dialyzed FBS, 46.1 µM | 29 | 11.5 | 7.21
